# Data: ChEMBL document CHEMBL1147183, “Design, synthesis, and evaluation of non-steroidal farnesoid X receptor (FXR) antagonist” (Bioorg Med Chem, 2007)
# The source made the active and inactive calls. No cut-off for these calls is given here.
# Columns and labels:
# [1] = target: T1, Bile acid receptor (Homo sapiens, UniProt Q96RI1); assay: Agonistic activity at FXR in HEK293 cells by GAL4 transactivation activity; assay type: functional, cell-based
# T1 sequence (Q96RI1 whole entry): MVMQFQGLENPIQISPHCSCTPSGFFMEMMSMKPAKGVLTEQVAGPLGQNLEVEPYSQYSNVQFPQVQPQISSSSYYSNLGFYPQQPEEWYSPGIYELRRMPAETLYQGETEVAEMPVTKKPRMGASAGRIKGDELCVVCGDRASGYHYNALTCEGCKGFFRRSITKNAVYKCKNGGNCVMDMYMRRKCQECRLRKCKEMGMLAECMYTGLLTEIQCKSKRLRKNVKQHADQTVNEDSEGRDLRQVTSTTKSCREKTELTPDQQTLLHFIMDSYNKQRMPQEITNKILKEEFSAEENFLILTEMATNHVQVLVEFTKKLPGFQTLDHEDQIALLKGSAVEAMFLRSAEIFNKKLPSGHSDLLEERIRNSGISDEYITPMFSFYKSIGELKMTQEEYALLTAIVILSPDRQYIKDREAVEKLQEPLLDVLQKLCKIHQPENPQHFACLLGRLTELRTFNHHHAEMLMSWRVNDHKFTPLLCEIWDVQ
# [2] = target: T2, Bile acid receptor (Homo sapiens) (UniProt Q96RI1); assay: Agonistic activity at FXR in HEK293 cells at 100 uM by GAL4 transactivation activity; assay type: functional, cell-based
# T2 sequence (whole entry): T1 sequence (Q96RI1 whole entry)
# [3] = target: T1, Bile acid receptor; assay: Inhibition of FXR in HEK293 cells in presence of CDCA by GAL4 transactivation activity; assay type: cell-based
# [4] = target: T3, Progesterone receptor (Homo sapiens) (UniProt P06401); assay: Activity against PR by transactivation activity at 30 uM
# T3 sequence (whole entry): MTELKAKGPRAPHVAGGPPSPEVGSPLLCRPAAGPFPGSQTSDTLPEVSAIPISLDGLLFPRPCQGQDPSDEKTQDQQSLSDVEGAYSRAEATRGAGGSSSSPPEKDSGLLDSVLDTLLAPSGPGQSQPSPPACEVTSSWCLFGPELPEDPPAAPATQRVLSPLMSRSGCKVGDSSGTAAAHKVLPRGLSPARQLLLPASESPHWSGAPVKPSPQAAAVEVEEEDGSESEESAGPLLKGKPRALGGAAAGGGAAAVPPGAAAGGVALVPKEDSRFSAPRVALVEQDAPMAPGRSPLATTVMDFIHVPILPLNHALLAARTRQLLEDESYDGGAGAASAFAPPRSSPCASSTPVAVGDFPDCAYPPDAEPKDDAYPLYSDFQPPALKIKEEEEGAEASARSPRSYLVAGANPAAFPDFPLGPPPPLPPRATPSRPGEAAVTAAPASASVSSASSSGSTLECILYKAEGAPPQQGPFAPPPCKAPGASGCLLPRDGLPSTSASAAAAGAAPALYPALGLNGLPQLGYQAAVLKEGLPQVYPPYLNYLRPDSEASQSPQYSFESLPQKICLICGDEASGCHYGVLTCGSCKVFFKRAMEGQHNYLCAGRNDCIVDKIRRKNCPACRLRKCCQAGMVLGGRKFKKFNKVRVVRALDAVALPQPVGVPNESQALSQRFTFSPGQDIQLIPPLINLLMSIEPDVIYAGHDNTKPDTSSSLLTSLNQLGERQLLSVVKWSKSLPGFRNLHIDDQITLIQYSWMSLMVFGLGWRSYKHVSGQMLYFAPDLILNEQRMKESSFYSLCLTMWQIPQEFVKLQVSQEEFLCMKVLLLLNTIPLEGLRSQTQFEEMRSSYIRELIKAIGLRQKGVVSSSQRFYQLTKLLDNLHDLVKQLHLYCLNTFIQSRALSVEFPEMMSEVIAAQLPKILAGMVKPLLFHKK
# [5] = target: T2, Bile acid receptor (Homo sapiens); assay: Activity at FXR assessed by ligand-induced co-repressor recruitment by two-hybrid assay system
SMILES,EC50 [1],Activity [2],also measured
CC(C)c1onc(-c2c(Cl)cccc2Cl)c1COc1ccc(C(=O)N(Cc2ccccc2)c2cccc(C(=O)O)c2)c(Cl)c1,2.5 µM,–,–
CC(C)c1onc(-c2ccc(-c3ccccc3)cc2)c1COc1ccc(/C=C/c2cccc(C(=O)O)c2)c(Cl)c1,–,inactive,–
CC(C)c1onc(-c2c(Cl)cccc2Cl)c1COc1ccc(/C=C/c2cccc(C(=O)N(Cc3ccccc3)Cc3ccccc3)c2)c(Cl)c1,35.1 µM,–,–
CC(C)(C)c1onc(-c2c(Cl)cccc2Cl)c1COc1ccc(C(=O)Nc2cccc(C(=O)O)c2)c(Cl)c1,1.3 µM,–,–
O=C(O)c1cccc(/C=C/c2ccc(OCc3c(-c4c(Cl)cccc4Cl)noc3-c3ccccc3)cc2Cl)c1,–,inactive,IC50 [3]: 15.8 µM
CC(C)c1onc(-c2c(Cl)cccc2Cl)c1COc1ccc(C(=O)Nc2cccc(C(=O)O)c2)c(Cl)c1,3 µM,–,–
CCCNC(=O)c1cccc(/C=C/c2ccc(OCc3c(-c4c(Cl)cccc4Cl)noc3C(C)C)cc2Cl)c1,9 µM,–,–
CCCN(C(=O)c1ccc(OCc2c(-c3c(Cl)cccc3Cl)noc2C(C)C)cc1Cl)c1cccc(C(=O)O)c1,2.1 µM,–,–
O=C(O)c1cccc(NC(=O)c2ccc(OCc3c(-c4c(Cl)cccc4Cl)noc3-c3ccc4ccccc4c3)cc2Cl)c1,–,inactive,IC50 [3]: 4 µM; Activity [4]: inactive; Activity [5]: inactive

# Further lines, with some results ahead:
EC50 [1],Activity [2],SMILES,also measured
–,inactive,O=C(O)c1cccc(NC(=O)c2ccc(OCc3c(-c4c(Cl)cccc4Cl)noc3-c3ccc(-c4ccccc4)cc3)cc2Cl)c1,IC50 [3]: 3.7 µM; Activity [4]: Active
0.84 µM,–,CC(C)c1onc(-c2c(Cl)cccc2Cl)c1COc1ccc(C(=O)N(CCc2ccccc2)c2cccc(C(=O)O)c2)c(Cl)c1,–
3.1 µM,–,CC(C)c1onc(-c2c(Cl)cccc2Cl)c1COc1ccc(C(=O)N(C)c2cccc(C(=O)O)c2)c(Cl)c1,–
–,inactive,O=C(O)c1cccc(/C=C/c2ccc(OCc3c(-c4c(Cl)cccc4Cl)noc3-c3ccc4ccccc4c3)cc2Cl)c1,IC50 [3]: 22.2 µM
–,inactive,CC(C)c1onc(-c2ccc3ccccc3c2)c1COc1ccc(/C=C/c2cccc(C(=O)O)c2)c(Cl)c1,–
–,inactive,O=C(O)c1cccc(/C=C/c2ccc(OCc3c(-c4c(Cl)cccc4Cl)noc3-c3ccc(-c4ccccc4)cc3)cc2Cl)c1,IC50 [3]: 33.9 µM
1.3 µM,–,CC(C)(C)c1onc(-c2c(Cl)cccc2Cl)c1COc1ccc(/C=C/c2cccc(C(=O)O)c2)c(Cl)c1,–
–,inactive,C/C=C1\C(=O)C[C@H]2[C@@H]3CCC4=CC(=O)CC[C@]4(C)[C@H]3CC[C@]12C,Activity [5]: inactive
